pEC50: −log10 of the molar value.
How the values were obtained:
[1] = biological target: hCB1 receptor (Homo sapiens, UniProt P21554); assay: AequoScreen hCB1 receptor assay (flash luminescence, recombinant CHO-K1 cells); details: for Emax: CHO-K1, read-out: Efficacy (% JWH-018 activity), Emax, Emax from dose-response curves, normalized to JWH-018 at 20 µg/mL; for Emax / Efficacy (% JWH-018 activity), Emax: triplicates; for pEC50: EC50, 8 concentrations 20 µg/mL to 76 or 9.5 ng/mL, normalized to JWH-018 between runs; for Potency retained, % of the potency of the parent: hydroxyindole metabolites versus AM-2201 or JWH-018; for Efficacy (% JWH-018 activity), Emax: Emax from dose-response curves, normalized to JWH-018 at 20 µg/mL
Sequence of hCB1 receptor (P21554 whole entry): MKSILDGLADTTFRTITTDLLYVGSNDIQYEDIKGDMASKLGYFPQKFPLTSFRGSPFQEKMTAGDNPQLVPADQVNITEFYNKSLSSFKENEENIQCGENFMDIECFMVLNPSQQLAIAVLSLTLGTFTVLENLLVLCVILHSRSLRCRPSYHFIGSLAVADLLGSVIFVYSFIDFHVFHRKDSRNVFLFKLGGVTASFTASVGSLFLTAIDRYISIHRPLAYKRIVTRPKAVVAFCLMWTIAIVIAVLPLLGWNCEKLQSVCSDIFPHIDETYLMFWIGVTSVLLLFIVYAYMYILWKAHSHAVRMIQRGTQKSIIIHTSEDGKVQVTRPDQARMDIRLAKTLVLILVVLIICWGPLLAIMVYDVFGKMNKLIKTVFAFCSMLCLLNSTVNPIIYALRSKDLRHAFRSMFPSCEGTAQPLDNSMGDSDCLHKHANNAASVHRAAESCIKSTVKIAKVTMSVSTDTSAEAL

[2] = system: CB1 receptor; details: cited from earlier work
[3] = system: serotonin receptor 5-HT2A; parameters: method as in PMID 27779402, PMID 33160102, PMID 21755008; details: cited from earlier work

| SMILES | Emax [1] [%] | pEC50 [1] | further results |
| --- | --- | --- | --- |
| O=C(c1cccc2ccccc12)c1c(O)n(CCCCCF)c2ccccc12 [2-OH indole AM-2201] | 0.26 |  |  |
| CCCCCn1c(O)c(C(=O)c2cccc3ccccc23)c2ccccc21 [2-OH indole JWH-018] | -0.38 |  |  |
| O=C(c1cccc2ccccc12)c1cn(CC(O)CCCF)c2ccccc12 (stereo not drawn) [2-OH pentyl AM-2201] | 95.1 | 6.43 |  |
| CCCC(O)Cn1cc(C(=O)c2cccc3ccccc23)c2ccccc21 (stereo not drawn) [2-OH pentyl JWH-018] | 82 | 6.13 |  |
| CCCC(O)Cn1nc(C(=O)c2cccc3ccccc23)c2ccccc21 (stereo not drawn) [2-OH pentyl THJ-018] | 93.6 | 5.96 |  |
| O=C(c1cccc2ccccc12)c1nn(CC(O)CCCF)c2ccccc12 (stereo not drawn) [2-OH-pentyl THJ-2201] | 87 | 6.40 |  |
| O=C(c1cccc2ccccc12)c1cn(CCC(O)CCF)c2ccccc12 (stereo not drawn) [3-OH pentyl AM-2201] | 100 | 6.66 |  |
| CCC(O)CCn1cc(C(=O)c2cccc3ccccc23)c2ccccc21 (stereo not drawn) [3-OH pentyl JWH-018] | 96 | 5.46 |  |
| CCC(O)CCn1nc(C(=O)c2cccc3ccccc23)c2ccccc21 (stereo not drawn) [3-OH pentyl THJ-018] | 99.8 | 6.69 |  |
| O=C(c1cccc2ccccc12)c1nn(CCC(O)CCF)c2ccccc12 (stereo not drawn) [3-OH-pentyl THJ-2201] | 101 | 6.80 |  |
| O=C(c1cccc2ccccc12)c1cn(CCCCCF)c2cccc(O)c12 [4-OH indole AM-2201] | 94.6 | 7.36 | Potency retained, % of the potency of the parent [1]: 83% |
| CCCCCn1cc(C(=O)c2cccc3ccccc23)c2c(O)cccc21 [4-OH indole JWH-018] | 89.8 | 7.08 | Activity on the CB1 receptor in words [2]: active; Potency retained, % of the potency of the parent [1]: 51% |
| O=C(c1cccc2ccccc12)c1cn(CCCC(O)CF)c2ccccc12 (stereo not drawn) [4-OH pentyl AM-2201] | 97.1 | 7.20 |  |
| CC(O)CCCn1cc(C(=O)c2cccc3ccccc23)c2ccccc21 (stereo not drawn) [4-OH pentyl JWH-018] | 105 | 6.54 | hCB1 activity in other in vitro studies, in words [2]: active metabolites |
| CC(O)CCCn1nc(C(=O)c2cccc3ccccc23)c2ccccc21 (stereo not drawn) [4-OH pentyl THJ-018] | 98.5 | 6.76 |  |
| O=C(c1cccc2ccccc12)c1nn(CCCC(O)CF)c2ccccc12 (stereo not drawn) [4-OH-pentyl THJ-2201] | 99.2 | 7.86 | Potency increase versus the parent SC ([1]; metabolite more potent than parent): 2.2 × |

| SMILES | Emax [1] [%] | pEC50 [1] | further results |
| --- | --- | --- | --- |
| O=C(c1cccc2ccccc12)c1cn(CCCCCF)c2ccc(O)cc12 [5-OH indole AM-2201] | 93.4 | 6.51 | Potency retained, % of the potency of the parent [1]: over 12% |
| CCCCCn1cc(C(=O)c2cccc3ccccc23)c2cc(O)ccc21 [5-OH indole JWH-018] | 88.9 | 5.95 | Activity on the CB1 receptor in words [2]: active; Potency retained, % of the potency of the parent [1]: 4% |
| O=C(c1cccc2ccccc12)c1cn(CCCCCO)c2ccccc12 [5-OH pentyl JWH-018] | 63.1 | 6.75 | hCB1 activity in other in vitro studies, in words [2]: active metabolites; hCB1 activity class in words (full agonist, partial agonist, inactive) ([1]; less than 20% efficacy regarded as inactive): partial agonist |
| O=C(c1cccc2ccccc12)c1nn(CCCCCO)c2ccccc12 [5-OH pentyl THJ-018] | 67.3 | 6.56 |  |
| O=C(c1cccc2ccccc12)c1cn(CCCCCF)c2cc(O)ccc12 [6-OH indole AM-2201] | 94 | 6.91 | Efficacy (% JWH-018 activity), Emax [1]: 94.04 % JWH-018 activity; Potency retained, % of the potency of the parent [1]: over 12% |
| CCCCCn1cc(C(=O)c2cccc3ccccc23)c2ccc(O)cc21 [6-OH indole JWH-018] | 59 | 6.34 | Activity on the CB1 receptor in words [2]: active; hCB1 activity in other in vitro studies, in words [2]: significantly less Emax than its 5-hydroxy isomer; Efficacy (% JWH-018 activity), Emax [1]: 59.31 % JWH-018 activity; Potency retained, % of the potency of the parent [1]: 4% |
| O=C(c1cccc2ccccc12)c1cn(CCCCCF)c2c(O)cccc12 [7-OH indole AM-2201] | 110 | 6.55 | Efficacy (% JWH-018 activity), Emax [1]: 109.80 % JWH-018 activity; Potency retained, % of the potency of the parent [1]: over 12% |
| CCCCCn1cc(C(=O)c2cccc3ccccc23)c2cccc(O)c21 [7-OH indole JWH-018] | < 20 |  | Activity on the CB1 receptor in words [2]: active; Efficacy (% JWH-018 activity), Emax [1]: 15.81 % JWH-018 activity |
| O=C(c1cccc2ccccc12)c1cn(CCCCCF)c2ccccc12 [AM-2201, [1-(5-fluoropentyl)-1H-indol-3-yl]-1-naphthalenyl-methanone, reference compound] | 99.7 | 7.44 |  |
| CCCCCn1cc(C(=O)c2cccc3ccccc23)c2ccccc21 [JWH-018, 1-naphthalenyl(1-pentyl-1H-indol-3-yl)-methanone, reference compound] | 102 | 7.37 | hCB1 activity in other in vitro studies, in words [2]: agonist at nanomolar concentrations |
| O=C(O)CCCCn1cc(C(=O)c2cccc3ccccc23)c2ccccc21 [Pentanoic acid JWH-018] | 0.23 |  | hCB1 activity in other in vitro studies, in words [2]: inactive |
| O=C(O)CCCCn1nc(C(=O)c2cccc3ccccc23)c2ccccc21 [Pentanoic acid THJ-018] | 11.7 |  |  |
| CCCCCn1nc(C(=O)c2cccc3ccccc23)c2ccccc21 [THJ-018, 1-naphthalenyl(1-pentyl-1H-indazol-3-yl)-methanone, reference compound] | 96.4 | 7.31 | Efficacy (% JWH-018 activity), Emax [1]: 96.34 % JWH-018 activity |
| O=C(c1cccc2ccccc12)c1nn(CCCCCF)c2ccccc12 [THJ-2201, [1-(5-fluoropentyl)-1H-indazol-3-yl]-1-naphthalenyl-methanone, reference compound] | 92.8 | 7.51 |  |
| CCCCCn1cc(C(=O)O)c2ccccc21 [carboxylic acid PB-22, reference compound] |  |  | Activation of the serotonin receptor 5-HT2A in words [3]: activated; CB1 / hCB1 activity in words ([2]; in vivo rat model and in vitro): inactive |
| O=C(c1cccc2ccccc12)c1cn(CCCCCO[C@@H]2O[C@H](C(=O)O)[C@@H](O)[C@H](O)[C@H]2O)c2ccccc12 [reference compound] |  |  | Activity on hCB1 in words [2]: neutral antagonist |

Reference: article PMC12932713, “Structure-activity relationship of prevalent synthetic cannabinoid metabolites on hCB1 in vitro and in silico dynamics” (Acta Pharmacologica Sinica, 2025)
